Values quoted from earlier work in patent US20110142971A1, “USE OF AN ONION EXTRACT FOR MAKING A COMPOSITION TO CONTROL WEIGHT GAIN” (priority 2005, published 2011).

Assays:
pancreatic lipase = target: T1, pancreatic lipase (Homo sapiens, UniProt P16233); conditions: human species
T1 construct: host or cells: human subjects (in vivo, digestive tract)
T1 sequence (P16233 17-465): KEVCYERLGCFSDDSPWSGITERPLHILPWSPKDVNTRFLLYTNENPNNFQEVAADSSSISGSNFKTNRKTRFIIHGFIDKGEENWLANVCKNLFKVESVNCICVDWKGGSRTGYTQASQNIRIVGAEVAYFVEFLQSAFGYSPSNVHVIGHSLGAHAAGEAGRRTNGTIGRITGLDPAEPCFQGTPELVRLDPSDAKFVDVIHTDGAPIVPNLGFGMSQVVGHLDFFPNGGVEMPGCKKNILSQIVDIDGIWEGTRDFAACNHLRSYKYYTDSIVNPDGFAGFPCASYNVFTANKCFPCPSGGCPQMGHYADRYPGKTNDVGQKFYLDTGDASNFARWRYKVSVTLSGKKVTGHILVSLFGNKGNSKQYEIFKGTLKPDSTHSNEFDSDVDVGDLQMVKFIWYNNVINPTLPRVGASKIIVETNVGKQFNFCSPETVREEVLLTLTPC

[1] = in vivo

For `CCCCCCCCCCC[C@@H](C[C@@H]1OC(=O)[C@H]1CCCCCC)OC(=O)[C@H](CC(C)C)NC=O` [tetrahydrolipstatin, [2S-[2-α(R),3β]]-N-formyl-L-leucine 1-[(3-hexyl-4-oxo-2-oxetanyl)methyl]dodecyl ester], the “Average reduction of the lipids contained in food” value (pancreatic lipase) is given as “about one third” and the Side effects [1] is given as “steatorrhoea, anal exudation, abdominal pains, nausea and vomiting, or fat-soluble vitamin absorption reduction”.
